Measurements from US7223865B2, “Chromogenic compounds, and use thereof as enzyme substrates” (Biomerieux, priority 2003, dated 2007).

Tests used:
Type in all cases: cell-based
[1] = system: Burkholderia cepacia (NCTC 10743); assay: glycine-aminopeptidase activity on gelled medium, Example 10; set-up: key to growth: ++ means good growth; + means moderate growth; +/− means poor growth; NG means no growth
Protocol: (§1) A gelled medium comprising this substrate is prepared as follows: 30 mg of the substrate are dissolved (heating) in 10 ml of sterile distilled water. Ten ml of this solution are then added to 90 ml of Columbia agar, kept molten at 50° C.
(§2) Various strains of microorganisms derived from the NCTC collection (National Collection of Type Cultures, Colindale, UK) were seeded onto the media thus obtained according to the multipoint inoculation described in example 8 above.
(§3) The colonies formed were examined visually after incubation for 24 h and 48 h. The color and the growth of these colonies were noted.

[2] = system: Enterobacter cloacae (NCTC 11936); assay: as above; set-up: key to growth: ++ means good growth; + means moderate growth; +/− means poor growth; NG means no growth
Protocol: as §1, §2, §3

[3] = system: Enterococcus faecalis (NCTC 12697); assay: as above; set-up: key to growth: ++ means good growth; + means moderate growth; +/− means poor growth; NG means no growth
Protocol: as §1, §2, §3

[4] = system: Enterococcus faecium (NCTC 7171); assay: as above; set-up: key to growth: ++ means good growth; + means moderate growth; +/− means poor growth; NG means no growth
Protocol: as §1, §2, §3

[5] = system: Escherichia coli O157 (NCTC 12079); assay: as above; set-up: key to growth: ++ means good growth; + means moderate growth; +/− means poor growth; NG means no growth
Protocol: as §1, §2, §3

[6] = system: Klebsiella pneumonia (NCTC 10896); assay: as above; set-up: key to growth: ++ means good growth; + means moderate growth; +/− means poor growth; NG means no growth
Protocol: as §1, §2, §3

[7] = system: Listeria monocytogenes (NCTC 11994); assay: as above; set-up: key to growth: ++ means good growth; + means moderate growth; +/− means poor growth; NG means no growth
Protocol: as §1, §2, §3

[8] = system: Pseudomonas aeruginosa (NCTC 10662); assay: as above; set-up: key to growth: ++ means good growth; + means moderate growth; +/− means poor growth; NG means no growth
Protocol: as §1, §2, §3

[9] = system: Salmonella poona (NCTC 4840); assay: as above; set-up: key to growth: ++ means good growth; + means moderate growth; +/− means poor growth; NG means no growth
Protocol: as §1, §2, §3

[10] = system: Salmonella typhimurium (NCTC 74); assay: as above; set-up: key to growth: ++ means good growth; + means moderate growth; +/− means poor growth; NG means no growth
Protocol: as §1, §2, §3

[11] = system: Serratia marcescens (NCTC 10211); assay: as above; set-up: key to growth: ++ means good growth; + means moderate growth; +/− means poor growth; NG means no growth
Protocol: as §1, §2, §3

[12] = system: Shigella sonnei (NCTC 9774); assay: as above; set-up: key to growth: ++ means good growth; + means moderate growth; +/− means poor growth; NG means no growth
Protocol: as §1, §2, §3

[13] = system: Staphylococcus aureus (NCTC 11939); assay: as above; set-up: key to growth: ++ means good growth; + means moderate growth; +/− means poor growth; NG means no growth
Protocol: as §1, §2, §3

[14] = system: Enterococcus faecalis (NCTC 755); assay: as above; set-up: key: ++ means good growth; + means moderate growth; +/− means poor growth; NG means no growth
Protocol: as §1, §2, §3

[15] = system: Escherichia coli (NCTC 14018); assay: as above; set-up: key: ++ means good growth; + means moderate growth; +/− means poor growth; NG means no growth
Protocol: as §1, §2, §3

[16] = system: Staphylococcus aureus (NCTC 6571); assay: as above; set-up: key: ++ means good growth; + means moderate growth; +/− means poor growth; NG means no growth
Protocol: as §1, §2, §3

Candida albicans (138) = assay: L-proline-aminopeptidase activity on gelled medium, Example 6; settings: 0.3 g/l, 24 hours
Protocol: (§4) A gelled medium comprising L-prolyl-9-(4-amino-phenyl)acridine (hereinafter referred to as L-Pro-4-APA) is prepared as follows: 45 g of Sabouraud agar are added to 1 liter of distilled water and then autoclaved. This reaction medium comprises 0.3 g/l of L-Pro-APA also introduced by means of a stock solution in DMSO.
(§5) Microorganisms derived from the applicant's collection were seeded onto this medium, by delimitation as three dials, using a suspension of 0.5 McFarland. The dishes were incubated at 37° C. for 24 hours. The colonies formed were examined visually after incubation for 24 hours. The color of these colonies was noted before and after the addition of a drop of acetic acid, hereinafter referred to as GAA (glacial acetic acid).

Candida glabrata (051) = assay: as above; settings: 0.3 g/l, 24 hours
Protocol: as §4, §5

[17] = system: Candida guilliermondii (046); assay: as above; settings: 0.3 g/l, 24 hours
Protocol: as §4, §5

Candida krusei (026) = assay: as above; settings: 0.3 g/l, 24 hours
Protocol: as §4, §5

Candida lusitaniae (045) = assay: as above; settings: 0.3 g/l, 24 hours
Protocol: as §4, §5

[18] = system: Candida parapsilosis (040); assay: as above; settings: 0.3 g/l, 24 hours
Protocol: as §4, §5

C[n+]1c2ccccc2c(-c2ccc(NC(=O)CN)cc2)c2ccccc21.[Cl-] [G-4-AP-10-MA, glycyl-9-(4-aminophenyl)-10-methylacridine]
Orange: color of colonies ([1]; 24 h) | color of colonies ([1]; 48 h) | color of colonies ([2]; 24 h) | color of colonies ([2]; 48 h) | color of colonies ([5]; 24 h) | color of colonies ([5]; 48 h) | color of colonies ([6]; 24 h) | color of colonies ([6]; 48 h) | color of colonies ([8]; 48 h) | color of colonies ([9]; 24 h) | color of colonies ([9]; 48 h) | color of colonies ([11]; 24 h) | color of colonies ([11]; 48 h) | color of colonies ([12]; 24 h) | color of colonies ([12]; 48 h)
Pale orange: color of colonies ([8]; 24 h) | color of colonies ([10]; 24 h) | color of colonies ([10]; 48 h)
(++): growth ([8]; 24 h) | growth ([10]; 24 h)
+: growth ([3]; 24 h) | growth ([3]; 48 h) | growth ([4]; 24 h) | growth ([4]; 48 h) | growth ([7]; 24 h) | growth ([7]; 48 h) | growth ([13]; 24 h) | growth ([13]; 48 h)
Colorless: color of colonies ([3]; 24 h) | color of colonies ([3]; 48 h) | color of colonies ([4]; 24 h) | color of colonies ([4]; 48 h) | color of colonies ([7]; 24 h) | color of colonies ([7]; 48 h) | color of colonies ([13]; 24 h) | color of colonies ([13]; 48 h)
++: growth ([1]; 24 h) | growth ([1]; 48 h) | growth ([2]; 24 h) | growth ([2]; 48 h) | growth ([5]; 24 h) | growth ([5]; 48 h) | growth ([6]; 24 h) | growth ([6]; 48 h) | growth ([8]; 48 h) | growth ([9]; 24 h) | growth ([9]; 48 h) | growth ([10]; 48 h) | growth ([11]; 24 h) | growth ([11]; 48 h) | growth ([12]; 24 h) | growth ([12]; 48 h)
NG: growth ([14]; 24 h) | growth ([14]; 48 h) | growth ([15]; 24 h) | growth ([15]; 48 h) | growth ([16]; 24 h) | growth ([16]; 48 h)

O=C(Nc1ccc(-c2c3ccccc3nc3ccccc23)cc1)[C@@H]1CCCN1 [L-Pro-4-APA, L-Prolyl-9-(4-aminophenyl)acridine]
1: Intensity (Candida krusei (026); before GAA)
yellow: Color (Candida albicans (138); after GAA) | Color (Candida albicans (138); before GAA) | Color (Candida glabrata (051); after GAA) | Color (Candida glabrata (051); before GAA) | Color (Candida krusei (026); after GAA) | Color (Candida krusei (026); before GAA) | Color ([18]; after GAA)
3: Intensity (Candida albicans (138); after GAA) | Intensity (Candida glabrata (051); after GAA) | Intensity (Candida krusei (026); after GAA)
no growth: Color ([17]; after GAA) | Color ([17]; before GAA) | Color (Candida lusitaniae (045); after GAA) | Color (Candida lusitaniae (045); before GAA)
white: Color ([18]; before GAA)
2: Intensity (Candida albicans (138); before GAA) | Intensity (Candida glabrata (051); before GAA) | Intensity ([18]; after GAA)
